{"source": "the supplement of paper PMC10307832", "assay_in_all_cases": "relative viability (nuclei count vs DMSO), 5 days (fraction); higher = more cells survive", "key": {"[1]": {"compound": "C1COCCN1C2=NC(=NC3=C2OC4=C3C=CC=N4)C5=CC(=CC=C5)NC(=O)C6=CN=C(C=C6)N + Cc1nc(Nc2ncc(C(=O)Nc3c(C)cccc3Cl)s2)cc(N2CCN(CCO)CC2)n1 [Dasatinib] (partner 0.075 µM)", "how_it_was_run": "(§1)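 Values are medians from duplicate plates. Each reflects relative viability, defined as the nuclei count of treated wells over that of vehicle wells. Lung cancer cell lines in 1536-well plates were pin-tool dosed one day after seeding with one drug alone or with a fixed anchor-drug dose plus five library-drug doses (not always all listed) in √10 steps, then fixed, stained and imaged at 4× after 5 days.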"}, "SGI-1776 + AZD7762": {"compound": "CN1CCC(CNc2ccc3ncc(-c4cccc(OC(F)(F)F)c4)n3n2)CC1 [SGI-1776] + NC(=O)Nc1cc(-c2cccc(F)c2)sc1C(=O)N[C@H]1CCCNC1 [AZD7762] (partner 0.2 µM)", "how_it_was_run": "as §1"}, "Entinostat + Olaparib": {"compound": "Nc1ccccc1NC(=O)c1ccc(CNC(=O)OCc2cccnc2)cc1 [Entinostat] + O=C(c1cc(Cc2n[nH]c(=O)c3ccccc23)ccc1F)N1CCN(C(=O)C2CC2)CC1 [Olaparib] (partner 8 µM)", "how_it_was_run": "as §1"}, "[2]": {"compound": "C1COCCN1C2=NC(=NC3=C2OC4=C3C=CC=N4)C5=CC(=CC=C5)NC(=O)C6=CN=C(C=C6)N + NC(=O)Nc1cc(-c2cccc(F)c2)sc1C(=O)N[C@H]1CCCNC1 [AZD7762] (partner 0.2 µM)", "how_it_was_run": "as §1"}}}
{"cell line": "HCC-78", "values": [{"measurement": "relative viability", "setting": "[1]; first compound 0.02 µM", "result": 0.406}, {"measurement": "relative viability", "setting": "[1]; first compound 0.06325 µM", "result": 0.449}, {"measurement": "relative viability", "setting": "[1]; first compound 0.2 µM", "result": 0.456}, {"measurement": "relative viability", "setting": "[1]; first compound 0.6325 µM", "result": 0.345}, {"measurement": "relative viability", "setting": "[1]; first compound 2 µM", "result": 0.403}, {"measurement": "relative viability", "setting": "SGI-1776 + AZD7762; first compound 0.08 µM", "result": 0.665}, {"measurement": "relative viability", "setting": "SGI-1776 + AZD7762; first compound 0.8 µM", "result": 0.726}, {"measurement": "relative viability", "setting": "SGI-1776 + AZD7762; first compound 2.53 µM", "result": 0.579}, {"measurement": "relative viability", "setting": "SGI-1776 + AZD7762; first compound 8 µM", "result": 0.538}, {"measurement": "relative viability", "setting": "Entinostat + Olaparib; first compound 0.02 µM", "result": 0.771}, {"measurement": "relative viability", "setting": "Entinostat + Olaparib; first compound 0.06325 µM", "result": 0.722}, {"measurement": "relative viability", "setting": "Entinostat + Olaparib; first compound 0.2 µM", "result": 0.577}, {"measurement": "relative viability", "setting": "Entinostat + Olaparib; first compound 0.6325 µM", "result": 0.386}, {"measurement": "relative viability", "setting": "Entinostat + Olaparib; first compound 2 µM", "result": 0.355}, {"measurement": "relative viability", "setting": "[2]; first compound 0.02 µM", "result": 0.628}, {"measurement": "relative viability", "setting": "[2]; first compound 0.06325 µM", "result": 0.642}, {"measurement": "relative viability", "setting": "[2]; first compound 0.2 µM", "result": 0.576}, {"measurement": "relative viability", "setting": "[2]; first compound 0.6325 µM", "result": 0.685}, {"measurement": "relative viability", "setting": "[2]; first compound 2 µM", "result": 0.589}]}
{"cell line": "NCI-H1975", "values": [{"measurement": "relative viability", "setting": "[1]; first compound 0.02 µM", "result": 0.362}, {"measurement": "relative viability", "setting": "[1]; first compound 0.06325 µM", "result": 0.388}, {"measurement": "relative viability", "setting": "[1]; first compound 0.2 µM", "result": 0.298}, {"measurement": "relative viability", "setting": "[1]; first compound 0.6325 µM", "result": 0.296}, {"measurement": "relative viability", "setting": "[1]; first compound 2 µM", "result": 0.187}, {"measurement": "relative viability", "setting": "SGI-1776 + AZD7762; first compound 0.08 µM", "result": 0.749}, {"measurement": "relative viability", "setting": "SGI-1776 + AZD7762; first compound 0.8 µM", "result": 0.745}, {"measurement": "relative viability", "setting": "SGI-1776 + AZD7762; first compound 2.53 µM", "result": 0.631}, {"measurement": "relative viability", "setting": "SGI-1776 + AZD7762; first compound 8 µM", "result": 0.43}, {"measurement": "relative viability", "setting": "Entinostat + Olaparib; first compound 0.02 µM", "result": 0.73}, {"measurement": "relative viability", "setting": "Entinostat + Olaparib; first compound 0.06325 µM", "result": 0.637}, {"measurement": "relative viability", "setting": "Entinostat + Olaparib; first compound 0.2 µM", "result": 0.484}, {"measurement": "relative viability", "setting": "Entinostat + Olaparib; first compound 0.6325 µM", "result": 0.324}, {"measurement": "relative viability", "setting": "Entinostat + Olaparib; first compound 2 µM", "result": 0.211}, {"measurement": "relative viability", "setting": "[2]; first compound 0.02 µM", "result": 0.72}, {"measurement": "relative viability", "setting": "[2]; first compound 0.06325 µM", "result": 0.67}, {"measurement": "relative viability", "setting": "[2]; first compound 0.2 µM", "result": 0.608}, {"measurement": "relative viability", "setting": "[2]; first compound 0.6325 µM", "result": 0.557}, {"measurement": "relative viability", "setting": "[2]; first compound 2 µM", "result": 0.51}]}
